Measurements: patent US20140303092A1 (CHIMERIX, INC., priority 2011, published 2014)

Assay: Study HDP-CDV-201: safety and tolerability (adverse events, laboratory abnormalities, discontinuations)
Type: in vivo, human (adult allogeneic HSCT recipients)
Description: Clinical Studies of HDP-CDV were performed and described in detail in the following Examples. For example, HDP-CDV-201 is a placebo-controlled, dose-escalating trial in HSCT CMV (R+) recipients, evaluating the ability of HDP-CDV to prevent or control CMV infection was carried out. Five cohorts were established in which participants or subjects received either placebo or the HDP-CDV orally, in doses ranging from 40 mg weekly (QW) to 200 mg twice weekly (BIW). Subjects who were post-HSCT were enrolled at the time of engraftment and randomized to HDP-CDV or placebo (3 to 1 ratio) and received blinded therapy until approximately 100 day post-transplantation. HDP-CDV doses were 40 mg QW, 100 mg QW, 200 mg QW, 200 mg BIW and 100 mg BIW. Escalation to the next dose was decided by the data monitoring committee after review of the safety data from the previous Cohort. Subjects who developed CMV disease or CMV infection requiring pre-emptive therapy with local standard of care were discontinued from blinded therapy and followed for 4 weeks. Subjects who completed treatment with blinded therapy were followed for 8 weeks post-therapy.
Data from Study HDP-CDV-201 also provided characterization of the safety and tolerability profile of HDP-CDV when administered for the prevention or control of CMV infection in high risk (R^+) post-HSCT adult subjects.
The Safety population (SAFETY) included all randomized subjects who took at least one dose of study treatment. This population was used to summarize safety outcomes based on the treatment actually received, in cases where a subject was treated contrary to the randomization schedule.
The safety and tolerability profile of HDP-CDV, including subject demographics and Baseline characteristics; the AE profile; and laboratory abnormalities of interest were analyzed in the cohorts followed in this investigation.
Subjects completing the treatment period received a full course of study medication; those completing the entire study attended visits through 8 weeks of follow up. Subjects who discontinued treatment may have done so for protocol specified reasons (e.g. development of clinically significant CMV infection requiring preemptive treatment with excluded anti-CMV medications) or for other reasons (e.g., withdrawal, adverse events, loss to follow-up). The disposition of subjects in Study HDP-CDV-201 during the double-blind, placebo-controlled treatment period (through Week 11) is listed by dosing Cohort in TABLE 23.
Adverse events were examined by severity to ensure that all safety signals were identified in this study population. Because of the frequency of events in HSCT recipients, particular attention was given to evaluation of Grade 3 […], 4 (severe), and 5 (fatal) adverse events.
Only those preferred terms for which at least one Grade 3 or higher event was experienced in any treatment group are listed. Cytomegalovirus-related AEs are excluded from this analysis.
HDP-CDV is a lipid conjugate of CDV. Because CDV is known to have adverse effects on renal function and bone marrow, decreased GFR and persistent neutropenia were identified as AEs of special interest. Key renal and hematological (TABLE 30) laboratory parameters were measured and listed below by Study HDP-CDV-201 treatment groups. TABLE 30 includes abnormal levels of serum creatinine, neutrophils, platelets, WBCs, and hemoglobin and includes data at Screening and during the treatment period.
A common metric for unit based dosing of medications is by weight (mg/kg). When the distribution of weights was examined for all subjects participating in the study, the median was 78 kg and the lower 25th percentile weight was approximately 65 kg, which translates to a cut-off of ˜3 mg/kg for a 200 mg total weekly dose. Based upon this approach, a cut-off of 3 mg/kg was used to assess the frequency of diarrhea and associated GI AEs reported for the subjects in Cohorts 3 or 4a (TABLE 40).

[1] = Cohort 4, 200 mg BIW, through Week 11

CCCCCCCCCCCCCCCCOCCCOP(=O)(O)COC(CO)Cn1ccc(N)nc1=O (stereo not drawn) [HDP-CDV]
Dyspepsia leading to study drug withdrawal (Cohort 4, 200 mg BIW, N = 30): 0%
Nausea leading to study drug withdrawal (Cohort 4, 200 mg BIW, N = 30): 1 (3.3%)
TEAE ALT increased (Cohort 4, 200 mg BIW, N = 30): 10 (33.3%) n (%)
TEAE AST increased (Cohort 4, 200 mg BIW, N = 30): 7 (23.3%) n (%)
TEAE Abdominal pain (Cohort 4, 200 mg BIW, N = 30): 11 (36.7%) n (%)
TEAE Abdominal pain, Upper (Cohort 4, 200 mg BIW, N = 30): 3 (10.0%) n (%)
TEAE Acute GVHD (Cohort 4, 200 mg BIW, N = 30): 24 (80.0%) n (%)
TEAE Acute Myeloid Leukemia recurrent (Cohort 4, 200 mg BIW, N = 30): 0 n (%)
TEAE Acute Renal Failure (Cohort 4, 200 mg BIW, N = 30): 3 (10.0%) n (%)
TEAE Anxiety (Cohort 4, 200 mg BIW, N = 30): 2 (6.7%) n (%)
TEAE Arthralgias (Cohort 4, 200 mg BIW, N = 30): 1 (3.3%) n (%)
TEAE Back Pain (Cohort 4, 200 mg BIW, N = 30): 3 (10.0%) n (%)
TEAE Blood lactate dehydrogenase increased (Cohort 4, 200 mg BIW, N = 30): 3 (10.0%) n (%)
TEAE Creatinine increased (Cohort 4, 200 mg BIW, N = 30): 2 (6.7%) n (%)
TEAE Cytomegalovirus viremia (Cohort 4, 200 mg BIW, N = 30): 5 (16.7%) n (%)
TEAE Decreased appetite (Cohort 4, 200 mg BIW, N = 30): 5 (16.7%) n (%)
TEAE Diarrhoea (Cohort 4, 200 mg BIW, N = 30): 21 (70.0%) n (%)
TEAE Dysgeusia (Cohort 4, 200 mg BIW, N = 30): 3 (10.0%) n (%)
TEAE Fatigue (Cohort 4, 200 mg BIW, N = 30): 0 n (%)
TEAE GI Reflux Disease (Cohort 4, 200 mg BIW, N = 30): 2 (6.7%) n (%)
TEAE Gamma-glutamyltransferase increased (Cohort 4, 200 mg BIW, N = 30): 3 (10.0%) n (%)
TEAE Generalized oedema (Cohort 4, 200 mg BIW, N = 30): 3 (10.0%) n (%)
TEAE Hyperbilirubinaemia (Cohort 4, 200 mg BIW, N = 30): 5 (16.7%) n (%)
TEAE Hyperglycaemia (Cohort 4, 200 mg BIW, N = 30): 8 (26.7%) n (%)
TEAE Hyperkalemia (Cohort 4, 200 mg BIW, N = 30): 3 (10.0%) n (%)
TEAE Hypocalcaemia (Cohort 4, 200 mg BIW, N = 30): 3 (10.0%) n (%)
TEAE Hypokalaemia (Cohort 4, 200 mg BIW, N = 30): 5 (16.7%) n (%)
TEAE Hyponatraemia (Cohort 4, 200 mg BIW, N = 30): 2 (6.7%) n (%)
TEAE Increased leukocytosis (Cohort 4, 200 mg BIW, N = 30): 3 (10.0%) n (%)
TEAE Insomnia (Cohort 4, 200 mg BIW, N = 30): 2 (6.7%) n (%)
TEAE Liver function test abnormal (Cohort 4, 200 mg BIW, N = 30): 3 (10.0%) n (%)
TEAE Malnutrition (Cohort 4, 200 mg BIW, N = 30): 3 (10.0%) n (%)
TEAE Nausea (Cohort 4, 200 mg BIW, N = 30): 11 (36.7%) n (%)
TEAE Neutropenia (Cohort 4, 200 mg BIW, N = 30): 4 (13.3%) n (%)
TEAE Oedema peripheral (Cohort 4, 200 mg BIW, N = 30): 3 (10.0%) n (%)
TEAE Oral Candidiasis (Cohort 4, 200 mg BIW, N = 30): 1 (3.3%) n (%)
TEAE Pneumonia (Cohort 4, 200 mg BIW, N = 30): 1 (3.3%) n (%)
TEAE Pyrexia (Cohort 4, 200 mg BIW, N = 30): 2 (6.7%) n (%)
TEAE Recurrent flatulence (Cohort 4, 200 mg BIW, N = 30): 3 (10.0%) n (%)
TEAE Renal Failure (Cohort 4, 200 mg BIW, N = 30): 0 n (%)
TEAE Staphylococcal Bacteremia (Cohort 4, 200 mg BIW, N = 30): 1 (3.3%) n (%)
TEAE Thrombocytopenia (Cohort 4, 200 mg BIW, N = 30): 5 (16.7%) n (%)
TEAE Tremor (Cohort 4, 200 mg BIW, N = 30): 2 (6.7%) n (%)
TEAE Vomiting (Cohort 4, 200 mg BIW, N = 30): 8 (26.7%) n (%)
Vomiting leading to study drug withdrawal (Cohort 4, 200 mg BIW, N = 30): 0%
All AEs, Grade 5 (deaths) (Cohort 4, 200 mg BIW, N = 30, entire study duration): 4 (13.3%)
Subjects completed treatment [1]: 7 (23.3%) n (%)
Subjects who permanently discontinued treatment [1]: 23 (76.7%) n (%)
Grade of hepatobiliary AE hyperbilirubinemia, subject 4042 (Cohort 4, drug interrupted): 1
Outcome of hepatobiliary AE hyperbilirubinemia, subject 4042 (Cohort 4, drug interrupted): recovered/resolved
Relationship of hepatobiliary AE hyperbilirubinemia, subject 4042 (Cohort 4, drug interrupted): not related
Grade of hepatobiliary AE acute liver injury, subject 4008 (Cohort 4, drug withdrawn): 3
Outcome of hepatobiliary AE acute liver injury, subject 4008 (Cohort 4, drug withdrawn): recovered/resolved
Relationship of hepatobiliary AE acute liver injury, subject 4008 (Cohort 4, drug withdrawn): possibly related
subjects discontinued due to neutropenia (Cohort 4A): 1 subject(s)
ALT (Screening) >3 × ULN-5 × ULN, subjects (Cohort 4A, 100 mg BIW): 1 (2.2%)
ALT (Screening) >5 × ULN-10 × ULN, subjects (Cohort 4A, 100 mg BIW): 1 (2.2%)
ALT (Screening) >10 × ULN-20 × ULN, subjects (Cohort 4A, 100 mg BIW): 1 (2.2%)
ALT (Screening) >20 × ULN, subjects (Cohort 4A, 100 mg BIW): 0
ALT (any time during therapy) >3 × ULN-5 × ULN, subjects (Cohort 4A, 100 mg BIW): 10 (20.0%)
ALT (any time during therapy) >5 × ULN-10 × ULN, subjects (Cohort 4A, 100 mg BIW): 4 (8.0%)
ALT (any time during therapy) >10 × ULN-20 × ULN, subjects (Cohort 4A, 100 mg BIW): 1 (2.0%)
ALT (any time during therapy) >20 × ULN, subjects (Cohort 4A, 100 mg BIW): 1 (2.0%)
AST (Screening) >3 × ULN-5 × ULN, subjects (Cohort 4A, 100 mg BIW): 1 (2.2%)
AST (Screening) >5 × ULN-10 × ULN, subjects (Cohort 4A, 100 mg BIW): 1 (2.2%)
AST (Screening) >10 × ULN-20 × ULN, subjects (Cohort 4A, 100 mg BIW): 1 (2.2%)
AST (Screening) >20 × ULN, subjects (Cohort 4A, 100 mg BIW): 0
AST (any time during therapy) >3 × ULN-5 × ULN, subjects (Cohort 4A, 100 mg BIW): 2 (4.0%)
AST (any time during therapy) >5 × ULN-10 × ULN, subjects (Cohort 4A, 100 mg BIW): 3 (6.0%)
AST (any time during therapy) >10 × ULN-20 × ULN, subjects (Cohort 4A, 100 mg BIW): 0
AST (any time during therapy) >20 × ULN, subjects (Cohort 4A, 100 mg BIW): 0
Alkaline Phosphatase (Screening) >2.5-5.0 × ULN, subjects (Cohort 4A, 100 mg BIW): 0
Alkaline Phosphatase (Screening) >5.0-20.0 × ULN, subjects (Cohort 4A, 100 mg BIW): 0
Alkaline Phosphatase (Screening) >20.0 × ULN, subjects (Cohort 4A, 100 mg BIW): 0
Alkaline Phosphatase (Screening) >ULN-[…] ULN, subjects (Cohort 4A, 100 mg BIW): 8 (17.4%)
Alkaline Phosphatase (any time during therapy) >2.5-5.0 × ULN, subjects (Cohort 4A, 100 mg BIW): 3 (6.0%)
Alkaline Phosphatase (any time during therapy) >5.0-20.0 × ULN, subjects (Cohort 4A, 100 mg BIW): 0
Alkaline Phosphatase (any time during therapy) >20.0 × ULN, subjects (Cohort 4A, 100 mg BIW): 0
Alkaline Phosphatase (any time during therapy) >ULN-[…] ULN, subjects (Cohort 4A, 100 mg BIW): 11 (22.0%)
GI AE Leading to Study Drug Discontinuation: Abdominal pain, subjects (Cohort 4A, 100 mg BIW): 1 (2.0%)
GI AE Leading to Study Drug Discontinuation: Diarrhoea, subjects (Cohort 4A, 100 mg BIW): 2 (4.0%)
GI AE Leading to Study Drug Discontinuation: Dyspepsia, subjects (Cohort 4A, 100 mg BIW): 0
GI AE Leading to Study Drug Discontinuation: Nausea, subjects (Cohort 4A, 100 mg BIW): 1 (2.0%)
GI AE Leading to Study Drug Discontinuation: Vomiting, subjects (Cohort 4A, 100 mg BIW): 1 (2.0%)
GI AEs Leading to Study Drug Discontinuation: Total subjects discontinued (Cohort 4A, 100 mg BIW): 5 (10.0%)
Gastrointestinal AE Abdominal discomfort, subjects (Cohort 4A, 100 mg BIW): 4 (8.0%)
Gastrointestinal AE Abdominal distention, subjects (Cohort 4A, 100 mg BIW): 0
Gastrointestinal AE Abdominal pain upper, subjects (Cohort 4A, 100 mg BIW): 2 (4.0%)
Gastrointestinal AE Abdominal pain, subjects (Cohort 4A, 100 mg BIW): 13 (26.0%)
Gastrointestinal AE Constipation, subjects (Cohort 4A, 100 mg BIW): 2 (4.0%)
Gastrointestinal AE Diarrhoea, subjects (Cohort 4A, 100 mg BIW): 26 (52.0%)
Gastrointestinal AE Diverticulum intestinal haemorragic, subjects (Cohort 4A, 100 mg BIW): 0
Gastrointestinal AE Dyspepsia, subjects (Cohort 4A, 100 mg BIW): 4 (8.0%)
Gastrointestinal AE Dysphagia, subjects (Cohort 4A, 100 mg BIW): 0
Gastrointestinal AE Epigastric discomfort, subjects (Cohort 4A, 100 mg BIW): 0
Gastrointestinal AE Flatulence, subjects (Cohort 4A, 100 mg BIW): 3 (6.0%)
Gastrointestinal AE GERD, subjects (Cohort 4A, 100 mg BIW): 0
Gastrointestinal AE Gastritis, subjects (Cohort 4A, 100 mg BIW): 0
Gastrointestinal AE Haematochezia, subjects (Cohort 4A, 100 mg BIW): 0
Gastrointestinal AE Haemorroids, subjects (Cohort 4A, 100 mg BIW): 1 (2.0%)
Gastrointestinal AE Large intestinal ulcer, subjects (Cohort 4A, 100 mg BIW): 0
Gastrointestinal AE Nausea, subjects (Cohort 4A, 100 mg BIW): 17 (34.0%)
Gastrointestinal AE Odynophagia, subjects (Cohort 4A, 100 mg BIW): 0
Gastrointestinal AE Oesophagitis, subjects (Cohort 4A, 100 mg BIW): 0
Gastrointestinal AE Retching, subjects (Cohort 4A, 100 mg BIW): 2 (4.0%)
Gastrointestinal AE Vomiting, subjects (Cohort 4A, 100 mg BIW): 22 (44.0%)
Hepatobiliary clinical AE Cholelithiasis, subjects (Cohort 4A, 100 mg BIW): 0
Hepatobiliary clinical AE Hepatomegaly, subjects (Cohort 4A, 100 mg BIW): 0
Hepatobiliary clinical AE Hyperbilirubinaemia, subjects (Cohort 4A, 100 mg BIW): 3 (6.0%)
Hepatobiliary clinical AE Jaundice, subjects (Cohort 4A, 100 mg BIW): 0
Hepatobiliary clinical AE Liver injury, subjects (Cohort 4A, 100 mg BIW): 0
